Strand notation (5' to 3'): a small letter for the sugar, then the base; units joined by * are phosphorothioate-linked, units joined directly phosphodiester-linked; [ ] holds rarer units or linkages, { } end groups; capitals alone tell only the bases. k = constrained ethyl (cEt); [5mC] = 5-methylcytosine; d = 2'-deoxy (DNA)
The substances below were run on human SMAD7 mRNA (assay: Antisense inhibition of human SMAD7 mRNA expression in Hep3B cells by 3-10-3 cEt gapmers, 10,000 nM, electroporation (Example 2)). Details: Hep3B cells, electroporation with 10,000 nM antisense oligonucleotide, approximately 24 hours, primer probe set RTS5062, relative to untreated control cells.
Assay type: cell-based
Outline: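 qRT-PCR (RTS5062) of SMAD7 mRNA, normalised to RIBOGREEN total RNA, gave percent inhibition relative to untreated controls. Hep3B cells at 20,000 per well received 10,000 nM oligonucleotide by electroporation, with ~24 h treatment.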

Substance	% inhibition of SMAD7 mRNA expression	% Inhibition
799201 (antisense kT*kT*kT*dT*d[5mC]*dA*dG*dG*dA*dG*dT*d[5mC]*d[5mC]*kT*kT*kT) [compound 799201]	38%	–
799202 (antisense kT*kT*kT*dT*dT*dT*dT*d[5mC]*dA*dG*dG*dA*dG*kT*k[5mC]*k[5mC]) [compound 799202]	33%	–
799203 (antisense kG*kG*kT*dT*dT*dT*dT*dT*dT*dT*d[5mC]*dA*dG*kG*kA*kG) [compound 799203]	56%	–
799204 (antisense k[5mC]*kT*k[5mC]*dA*dG*dG*dT*dT*dT*dT*dT*dT*dT*kT*k[5mC]*kA) [compound 799204]	36%	–
799205 (antisense kT*kA*kA*dA*dT*d[5mC]*dT*d[5mC]*dA*dG*dG*dT*dT*kT*kT*kT) [compound 799205]	54%	–
799206 (kT*kA*kT*dA*dT*dT*dT*dA*d[5mC]*dA*dA*dG*dT*kA*kA*kT; antisense) [compound 799206]	–	0%
799207 (k[5mC]*kT*kT*dT*dA*dT*dA*dT*dT*dT*dA*d[5mC]*dA*kA*kG*kT; antisense) [compound 799207]	–	0%
799208 (kT*kG*kA*dT*dG*d[5mC]*dT*dT*dA*dT*dA*dA*dA*kA*k[5mC]*kG; antisense) [compound 799208]	–	15%
799209 (kT*kA*kA*dT*dG*dA*dT*dG*d[5mC]*dT*dT*dA*dT*kA*kA*kA; antisense) [compound 799209]	–	14%
799210 (kT*kA*kA*dA*dT*dA*dA*dT*dG*dA*dT*dG*d[5mC]*kT*kT*kA; antisense) [compound 799210]	–	10%
799211 (kA*k[5mC]*kA*dT*dA*dA*dA*dT*dA*dA*dT*dG*dA*kT*kG*k[5mC]; antisense) [compound 799211]	–	0%
799212 (kT*kT*kA*dT*dA*d[5mC]*dA*d[5mC]*dA*dT*dT*dG*d[5mC]*kA*k[5mC]*kA; antisense) [compound 799212]	–	35%
799213 (kT*kG*kT*dT*dT*dA*dT*dA*d[5mC]*dA*d[5mC]*dA*dT*kT*kG*k[5mC]; antisense) [compound 799213]	42%	–
799214 (kT*kT*k[5mC]*dT*dT*dG*dT*dT*dT*dA*dT*dA*d[5mC]*kA*k[5mC]*kA; antisense) [compound 799214]	46%	–
799215 (kA*kG*k[5mC]*dA*dA*dA*dG*dT*dG*d[5mC]*dA*dT*d[5mC]*kT*kT*kT; antisense) [compound 799215]	0%	–
799216 (kT*kA*kT*dT*dA*dA*dA*dG*d[5mC]*dA*dA*dA*dG*kT*kG*k[5mC]; antisense) [compound 799216]	49%	–
799217 (kG*kT*kT*dA*dT*dT*dT*dG*d[5mC]*dA*dT*dT*dT*kA*kT*kA; antisense) [compound 799217]	0%	–
799218 (k[5mC]*kA*kT*dT*dT*dG*dT*dT*dA*dT*dT*dT*dG*k[5mC]*kA*kT; antisense) [compound 799218]	0%	–
799219 (kT*kG*kG*d[5mC]*dA*dT*dT*dT*dG*dT*dT*dA*dT*kT*kT*kG; antisense) [compound 799219]	–	0%

Substance	% inhibition of SMAD7 mRNA expression	% Inhibition
799220 (kA*kA*kT*dT*dT*dG*dG*d[5mC]*dA*dT*dT*dT*dG*kT*kT*kA; antisense) [compound 799220]	–	0%
799221 (kT*kT*kT*dA*dA*dT*dT*dT*dG*dG*d[5mC]*dA*dT*kT*kT*kG; antisense) [compound 799221]	–	0%
799222 (k[5mC]*kT*kT*dT*dT*dT*dT*dA*dA*dT*dT*dT*dG*kG*k[5mC]*kA; antisense) [compound 799222]	–	0%
799223 (kA*kT*k[5mC]*dT*dT*dG*dT*dG*dT*dT*dT*dA*dT*k[5mC]*kT*kT; antisense) [compound 799223]	–	0%
799224 (k[5mC]*k[5mC]*kA*dA*dT*d[5mC]*dT*dT*dG*dT*dG*dT*dT*kT*kA*kT; antisense) [compound 799224]	–	3%
799225 (kA*k[5mC]*kA*d[5mC]*d[5mC]*dA*dA*dT*d[5mC]*dT*dT*dG*dT*kG*kT*kT; antisense) [compound 799225]	–	4%
799226 (kA*kA*kA*dA*d[5mC]*dA*d[5mC]*d[5mC]*dA*dA*dT*d[5mC]*dT*kT*kG*kT; antisense) [compound 799226]	–	15%
799227 (kG*kA*kA*dA*dA*dA*dA*dA*d[5mC]*dA*d[5mC]*d[5mC]*dA*kA*kT*k[5mC]; antisense) [compound 799227]	–	2%
799228 (k[5mC]*kA*kT*dA*dG*dA*dA*dA*dA*dA*dA*dA*d[5mC]*kA*k[5mC]*k[5mC]; antisense) [compound 799228]	–	4%
799229 (kA*kA*k[5mC]*dA*d[5mC]*d[5mC]*d[5mC]*dA*dT*dA*dG*dA*dA*kA*kA*kA; antisense) [compound 799229]	22%	–
799230 (kG*kG*kT*dG*dA*dT*dA*dA*d[5mC]*dA*d[5mC]*d[5mC]*d[5mC]*kA*kT*kA; antisense) [compound 799230]	14%	–
799231 (kG*k[5mC]*kT*dA*dG*dG*dT*dG*dA*dT*dA*dA*d[5mC]*kA*k[5mC]*k[5mC]; antisense) [compound 799231]	8%	–
799232 (kT*k[5mC]*kA*dG*d[5mC]*dT*dA*dG*dG*dT*dG*dA*dT*kA*kA*k[5mC]; antisense) [compound 799232]	13%	–
799233 (k[5mC]*kA*kT*dT*d[5mC]*dA*dG*d[5mC]*dT*dA*dG*dG*dT*kG*kA*kT; antisense) [compound 799233]	28%	–
799234 (kA*kA*kA*d[5mC]*dA*dT*dT*d[5mC]*dA*dG*d[5mC]*dT*dA*kG*kG*kT; antisense) [compound 799234]	13%	–
799235 (kG*kA*kA*dA*dA*dA*d[5mC]*dA*dT*dT*d[5mC]*dA*dG*k[5mC]*kT*kA; antisense) [compound 799235]	24%	–
799236 (kT*kA*kA*dA*d[5mC]*dT*d[5mC]*d[5mC]*dT*dT*dT*dA*dG*kA*kA*kA; antisense) [compound 799236]	–	45%
799237 (kA*k[5mC]*kA*dT*dA*dA*dA*d[5mC]*dT*d[5mC]*d[5mC]*dT*dT*kT*kA*kG; antisense) [compound 799237]	–	9%
799238 (kA*kA*kT*dG*dG*dA*dA*d[5mC]*dA*dT*dA*dA*dA*k[5mC]*kT*k[5mC]; antisense) [compound 799238]	–	17%

Same assay, conditions: Hep3B cells, electroporation, 10,000 nM, approximately 24 hours; 3-10-3 cEt gapmers targeting SEQ ID NO: 3 and 4

Substance	% inhibition of SMAD7 mRNA expression
799239 (kT*k[5mC]*kA*dG*dT*dT*dG*dG*dT*dT*dT*dG*dA*kG*kA*kA; antisense) [compound 799239]	16%
799240 (kA*kT*k[5mC]*dT*dG*dG*dA*d[5mC]*dA*dG*dT*d[5mC]*dA*kG*kT*kT; antisense) [compound 799240]	45%

— US10517889B2, “Modulators of SMAD7 expression” (Ionis Pharmaceuticals, Inc., priority 2017, dated 2019)
